{
  "source": "paper PMC4135079",
  "about": "(Journal of pharmacological and toxicological methods, 2013)",
  "key": {"[1]": {"details": "human Thorough-QT study; ref Gintant, 2011; cited from earlier work"}, "hERG [2]": {"target": "hERG (Homo sapiens, UniProt Q12809)", "sequence (Q12809 whole entry)": "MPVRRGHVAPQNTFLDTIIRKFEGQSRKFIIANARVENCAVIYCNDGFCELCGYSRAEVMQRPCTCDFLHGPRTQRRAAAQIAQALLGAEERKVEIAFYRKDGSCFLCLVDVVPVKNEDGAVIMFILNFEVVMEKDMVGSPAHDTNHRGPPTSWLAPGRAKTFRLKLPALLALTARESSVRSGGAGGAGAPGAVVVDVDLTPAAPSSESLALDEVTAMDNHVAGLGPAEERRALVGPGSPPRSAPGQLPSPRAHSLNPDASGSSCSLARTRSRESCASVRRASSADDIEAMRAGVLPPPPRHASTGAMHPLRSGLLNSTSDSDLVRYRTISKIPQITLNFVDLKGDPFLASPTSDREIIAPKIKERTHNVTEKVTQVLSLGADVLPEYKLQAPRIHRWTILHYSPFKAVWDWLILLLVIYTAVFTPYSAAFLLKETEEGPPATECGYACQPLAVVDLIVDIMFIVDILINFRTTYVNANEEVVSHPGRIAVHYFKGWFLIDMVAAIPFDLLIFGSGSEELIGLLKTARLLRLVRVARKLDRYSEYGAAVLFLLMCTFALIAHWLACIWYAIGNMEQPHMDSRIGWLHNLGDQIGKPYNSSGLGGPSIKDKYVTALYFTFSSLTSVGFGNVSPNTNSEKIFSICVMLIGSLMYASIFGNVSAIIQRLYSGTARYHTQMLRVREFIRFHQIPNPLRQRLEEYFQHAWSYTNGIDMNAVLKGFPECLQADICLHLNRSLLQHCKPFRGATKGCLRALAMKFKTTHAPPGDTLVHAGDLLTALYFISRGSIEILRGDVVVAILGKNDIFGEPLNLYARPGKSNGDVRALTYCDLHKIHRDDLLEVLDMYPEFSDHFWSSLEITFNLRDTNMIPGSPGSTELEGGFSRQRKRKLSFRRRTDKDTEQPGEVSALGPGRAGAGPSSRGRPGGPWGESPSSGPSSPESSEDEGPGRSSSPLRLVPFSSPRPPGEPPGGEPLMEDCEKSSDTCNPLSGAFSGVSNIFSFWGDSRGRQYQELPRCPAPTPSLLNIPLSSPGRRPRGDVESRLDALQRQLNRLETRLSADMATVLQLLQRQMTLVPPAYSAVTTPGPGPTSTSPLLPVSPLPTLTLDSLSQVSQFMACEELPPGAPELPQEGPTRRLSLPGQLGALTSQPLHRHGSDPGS"}, "hERG [3]": {"test_system": "hERG", "details": "read-out: hERG IC50; ref FDA pharmacology review (022068s000_PharmR_P1.pdf); cited from earlier work"}},
  "data": [
    {"compound": "COc1cc2nc(N(C)CCCNC(=O)C3CCCO3)nc(N)c2cc1OC", "note": "(centres unmarked) [Alfuzosin]", "values": [
      {"measurement": "QTc prolongation observed in the TQT study", "setting": "[1]", "result": 7.7, "unit": "ms"}
    ]},
    {"compound": "O=C(CCCN1CCC(O)(c2ccc(Cl)cc2)CC1)c1ccc(F)cc1", "note": "[Haloperidol]", "values": [
      {"measurement": "Hill Log-logistic α", "setting": "hERG [2]", "result": 1.469}
    ]},
    {"compound": "Cc1cn(-c2cc(NC(=O)c3ccc(C)c(Nc4nccc(-c5cccnc5)n4)c3)cc(C(F)(F)F)c2)cn1", "note": "[Nilotinib]", "values": [
      {"measurement": "IC50", "setting": "hERG [3]", "result": "[…]"},
      {"measurement": "QTc prolongation observed in the TQT study", "setting": "[1]", "result": 15.8, "unit": "ms"}
    ]},
    {"compound": "O=c1[nH]c2ccccc2n1C1CCN(CCCC(c2ccc(F)cc2)c2ccc(F)cc2)CC1", "note": "[Pimozide]", "values": [
      {"measurement": "Hill Log-logistic α", "setting": "hERG [2]", "result": 1.586}
    ]}
  ]
}
